Measured values as given in US20150337013A1, “NOVEL ANTIBACTERIAL AGENTS FOR THE TREATMENT OF GRAM POSITIVE INFECTIONS” (priority 2008, published 2015).
“And” between values parts separate entries of the source, which are not always exact repeats. Identical values can stand only once. Like-named read-outs stand apart in the source and are kept apart here.

Assays:
[1] = test system: Enterococcus faecalis EFS.201 (ATCC 49452); type: cell-based
Procedure, shortened: (§1)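 Broth microdilution per CLSI M7-A7 in Mueller Hinton broth supplemented with 50 mg/L calcium, 5×10^5 bacteria per well, 2-fold compound dilutions, DMSO ≤1%. Plates incubated 18-20 hours at 37° C with aeration (200 rpm); MIC (μg/mL) is the lowest concentration giving no visible turbidity.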

[2] = test system: Enterococcus faecalis EFS.312, Daptomycin resistant mutant (EFA); type: cell-based; conditions: MHBc with 50 mg/L calcium, 18-20 hours at 37° C.
Procedure, shortened: as §1

[3] = test system: Enterococcus faecium EFM.14 (ATCC 6569); type: cell-based
Procedure, shortened: as §1

[4] = test system: Enterococcus faecium EFM.384, Daptomycin resistant mutant (14-A); type: cell-based; conditions: MHBc with 50 mg/L calcium, 18-20 hours at 37° C.
Procedure, shortened: as §1

[5] = test system: Staphylococcus aureus SAU.278, Daptomycin resistant mutant (D10); type: cell-based; conditions: MHBc with 50 mg/L calcium, 18-20 hours at 37° C.
Procedure, shortened: as §1

[6] = test system: Staphylococcus aureus SAU.399 (ATCC 43300), Methicillin and Oxacillin Resistant; type: cell-based
Procedure, shortened: as §1

[7] = test system: Staphylococcus aureus SAU.42 (ATCC 29213); type: cell-based
Procedure, shortened: as §1

[8] = test system: Clostridium difficile
[9] = MHBc with 50 mg/L calcium, 18-20 hours at 37° C.

Compound	Efs201 MIC ([1]; ATCC 49452)	Efs312 MIC [2]	Efm14 MIC ([3]; ATCC 6569)	Efm384 MIC [4]	Sa278 MIC [5]	Sa399 MIC ([6]; ATCC 43300)	Sa42 MIC ([7]; ATCC 29213)	C. diff MIC90 [8]	Efs201 MIC [1, 9]	Efm14 MIC [3, 9]	Sa399 MIC [6, 9]	Sa42 MIC [7, 9]
CCCCCCCCC1CC1C(=O)N[C@@H](Cc1c[nH]c2ccccc12)C(=O)N[C@H](CC(N)=O)C(=O)N[C@@H](CC(=O)O)C(=O)N[C@@H]1C(=O)NCC(=O)N[C@@H](CCCN)C(=O)N[C@@H](CC(=O)O)C(=O)N[C@H](C)C(=O)N[C@@H](CC(=O)O)C(=O)NCC(=O)N[C@H](CO)C(=O)N[C@@H]([C@H](C)CC(=O)O)C(=O)N[C@@H](CC(=O)c2ccccc2N)C(=O)O[C@@H]1C (single isomer, unassigned) [27 isomer I]	2 µg/mL	32 µg/mL	4 µg/mL	32 µg/mL	8 µg/mL	2 µg/mL	2 µg/mL	2 µg/mL				
CCCCCCCCCCCCCCCOc1ccc(C(=O)N[C@@H](Cc2c[nH]c3ccccc23)C(=O)N[C@H](CC(N)=O)C(=O)N[C@@H](CC(=O)O)C(=O)N[C@@H]2C(=O)NCC(=O)N[C@@H](CCCN)C(=O)N[C@@H](CC(=O)O)C(=O)N[C@H](C)C(=O)N[C@@H](CC(=O)O)C(=O)NCC(=O)N[C@H](CO)C(=O)N[C@@H]([C@H](C)CC(=O)O)C(=O)N[C@@H](CC(=O)c3ccccc3N)C(=O)O[C@@H]2C)cc1 [Compound 40]		8 µg/mL		32 µg/mL	16.00 µg/mL			32 µg/mL	4.0 µg/mL	32.0 µg/mL	4.000 µg/mL	4.00 µg/mL
CCCCCCCCCC(=O)N[C@@H](Cc1c[nH]c2ccccc12)C(=O)N[C@H](CC(N)=O)C(=O)N[C@@H](CC(=O)O)C(=O)N[C@@H]1C(=O)NCC(=O)N[C@@H](CCCN)C(=O)N[C@@H](CC(=O)O)C(=O)N[C@H](C)C(=O)N[C@@H](CC(=O)O)C(=O)NCC(=O)N[C@H](CO)C(=O)N[C@@H]([C@H](C)CC(=O)O)C(=O)N[C@@H](CC(=O)c2ccccc2N)C(=O)O[C@@H]1C [Daptomycin, reference compound]	2 µg/mL	>32 µg/mL	4 µg/mL	>32 µg/mL	8 µg/mL	0.5 µg/mL	0.5 µg/mL	2 µg/mL				
CC(C)Cc1ccc(C(C)C(=O)N[C@@H](Cc2c[nH]c3ccccc23)C(=O)N[C@H](CC(N)=O)C(=O)N[C@@H](CC(=O)O)C(=O)N[C@@H]2C(=O)NCC(=O)N[C@@H](CCCN)C(=O)N[C@@H](CC(=O)O)C(=O)N[C@H](C)C(=O)N[C@@H](CC(=O)O)C(=O)NCC(=O)N[C@H](CO)C(=O)N[C@@H]([C@H](C)CC(=O)O)C(=O)N[C@@H](CC(=O)c3ccccc3N)C(=O)O[C@@H]2C)cc1 (single isomer, unassigned) [45 isomer I]	>32 µg/mL	>32 µg/mL	>32 µg/mL	>32 µg/mL	>32 µg/mL	8 µg/mL	8 µg/mL	32 µg/mL				
CCc1ccc(CCC(=O)N[C@@H](Cc2c[nH]c3ccccc23)C(=O)N[C@H](CC(N)=O)C(=O)N[C@@H](CC(=O)O)C(=O)N[C@@H]2C(=O)NCC(=O)N[C@@H](CCCN)C(=O)N[C@@H](CC(=O)O)C(=O)N[C@H](C)C(=O)N[C@@H](CC(=O)O)C(=O)NCC(=O)N[C@H](CO)C(=O)N[C@@H]([C@H](C)CC(=O)O)C(=O)N[C@@H](CC(=O)c3ccccc3N)C(=O)O[C@@H]2C)cc1 [Compound 29]	>32 µg/mL	>32 µg/mL	>32 µg/mL	>32 µg/mL	>32 µg/mL	8 µg/mL	8 µg/mL	16 µg/mL				
CCCCCCCCCCCCOc1ccc(C(=O)N[C@@H](Cc2c[nH]c3ccccc23)C(=O)N[C@H](CC(N)=O)C(=O)N[C@@H](CC(=O)O)C(=O)N[C@@H]2C(=O)NCC(=O)N[C@@H](CCCN)C(=O)N[C@@H](CC(=O)O)C(=O)N[C@H](C)C(=O)N[C@@H](CC(=O)O)C(=O)NCC(=O)N[C@H](CO)C(=O)N[C@@H]([C@H](C)CC(=O)O)C(=O)N[C@@H](CC(=O)c3ccccc3N)C(=O)O[C@@H]2C)cc1 [Compound 39]		2 µg/mL		2 µg/mL	2.00 µg/mL			16 µg/mL	0.5 µg/mL	2.0 µg/mL	0.500 µg/mL	1.00 µg/mL
C[C@H](CC(=O)O)[C@@H]1NC(=O)[C@@H](CO)NC(=O)CNC(=O)[C@H](CC(=O)O)NC(=O)[C@@H](C)NC(=O)[C@H](CC(=O)O)NC(=O)[C@H](CCCN)NC(=O)CNC(=O)[C@@H](NC(=O)[C@H](CC(=O)O)NC(=O)[C@@H](CC(N)=O)NC(=O)[C@H](Cc2c[nH]c3ccccc23)NC(=O)c2ccc(-c3ccc(-c4ccccc4)cc3)s2)[C@@H](C)OC(=O)[C@H](CC(=O)c2ccccc2N)NC1=O [Compound 52, N-[5-(biphenyl-4-yl)thiophene-2-carbonyl]-L-tryptophyl-D-asparaginyl-L-α-aspartyl-L-threonylglycyl-L-ornithyl-L-α-aspartyl-D-alanyl-L-α-aspartylglycyl-D-seryl-(3R)-3-methyl-L-α-glutamyl-(αS)-α,2-diamino-γ-oxobenzenebutanoic acid (13→4)-lactone]		8 µg/mL and 16 µg/mL		4 µg/mL	0.5 µg/mL			2 µg/mL	0.5 µg/mL	1 µg/mL and 0.5 µg/mL	0.25 µg/mL	0.25 µg/mL
C[C@H](CC(=O)O)[C@@H]1NC(=O)[C@@H](CO)NC(=O)CNC(=O)[C@H](CC(=O)O)NC(=O)[C@@H](C)NC(=O)[C@H](CC(=O)O)NC(=O)[C@H](CCCN)NC(=O)CNC(=O)[C@@H](NC(=O)[C@H](CC(=O)O)NC(=O)[C@@H](CC(N)=O)NC(=O)[C@H](Cc2c[nH]c3ccccc23)NC(=O)CCCCC2CCCCC2)[C@@H](C)OC(=O)[C@H](CC(=O)c2ccccc2N)NC1=O [Compound 24]	2 µg/mL	>32 µg/mL	4 µg/mL	32 µg/mL	8 µg/mL	1 µg/mL	1 µg/mL	4 µg/mL				
CCCCCCCCCCC(=O)N[C@@H](Cc1c[nH]c2ccccc12)C(=O)N[C@H](CC(N)=O)C(=O)N[C@@H](CC(=O)O)C(=O)N[C@@H]1C(=O)NCC(=O)N[C@@H](CCCN)C(=O)N[C@@H](CC(=O)O)C(=O)N[C@H](C)C(=O)N[C@@H](CC(=O)O)C(=O)NCC(=O)N[C@H](CO)C(=O)N[C@@H]([C@H](C)CC(=O)O)C(=O)N[C@@H](CC(=O)c2ccccc2N)C(=O)O[C@@H]1C [Compound 2]	2 µg/mL	32 µg/mL	2 µg/mL	>32 µg/mL	8 µg/mL	0.5 µg/mL	2 µg/mL	4 µg/mL				
